Consider 7 molecules from ChEMBL document CHEMBL5390261, “Agents for the Treatment of Gout: Current Advances and Future Perspectives” (J Med Chem, 2023).

SMILES strings stand for the structures.

Assay [1] deals with T1, Xanthine dehydrogenase/oxidase (Homo sapiens, UniProt P47989). As to the kind of experiment: Inhibition of XO (unknown origin).
In assay [2] the target is T1, Xanthine dehydrogenase/oxidase. As to the kind of experiment: Inhibition of XO (unknown origin) using xanthine as substrate assessed as reduction in uric acid formation by FluoSTAR OPTIMA plate reader analysis.
The target of assay [3] is Xanthine dehydrogenase/oxidase (Bos taurus, UniProt P80457). As to the kind of experiment: Inhibition of Bovine milk xanthine oxidase using xanthine as substrate assessed as decrease in uric acid level preincubated for 5 mins followed by substrate addition by spectrophotometric analysis.
Xanthine dehydrogenase/oxidase (Bos taurus, UniProt P80457), sequence (P80457 whole entry): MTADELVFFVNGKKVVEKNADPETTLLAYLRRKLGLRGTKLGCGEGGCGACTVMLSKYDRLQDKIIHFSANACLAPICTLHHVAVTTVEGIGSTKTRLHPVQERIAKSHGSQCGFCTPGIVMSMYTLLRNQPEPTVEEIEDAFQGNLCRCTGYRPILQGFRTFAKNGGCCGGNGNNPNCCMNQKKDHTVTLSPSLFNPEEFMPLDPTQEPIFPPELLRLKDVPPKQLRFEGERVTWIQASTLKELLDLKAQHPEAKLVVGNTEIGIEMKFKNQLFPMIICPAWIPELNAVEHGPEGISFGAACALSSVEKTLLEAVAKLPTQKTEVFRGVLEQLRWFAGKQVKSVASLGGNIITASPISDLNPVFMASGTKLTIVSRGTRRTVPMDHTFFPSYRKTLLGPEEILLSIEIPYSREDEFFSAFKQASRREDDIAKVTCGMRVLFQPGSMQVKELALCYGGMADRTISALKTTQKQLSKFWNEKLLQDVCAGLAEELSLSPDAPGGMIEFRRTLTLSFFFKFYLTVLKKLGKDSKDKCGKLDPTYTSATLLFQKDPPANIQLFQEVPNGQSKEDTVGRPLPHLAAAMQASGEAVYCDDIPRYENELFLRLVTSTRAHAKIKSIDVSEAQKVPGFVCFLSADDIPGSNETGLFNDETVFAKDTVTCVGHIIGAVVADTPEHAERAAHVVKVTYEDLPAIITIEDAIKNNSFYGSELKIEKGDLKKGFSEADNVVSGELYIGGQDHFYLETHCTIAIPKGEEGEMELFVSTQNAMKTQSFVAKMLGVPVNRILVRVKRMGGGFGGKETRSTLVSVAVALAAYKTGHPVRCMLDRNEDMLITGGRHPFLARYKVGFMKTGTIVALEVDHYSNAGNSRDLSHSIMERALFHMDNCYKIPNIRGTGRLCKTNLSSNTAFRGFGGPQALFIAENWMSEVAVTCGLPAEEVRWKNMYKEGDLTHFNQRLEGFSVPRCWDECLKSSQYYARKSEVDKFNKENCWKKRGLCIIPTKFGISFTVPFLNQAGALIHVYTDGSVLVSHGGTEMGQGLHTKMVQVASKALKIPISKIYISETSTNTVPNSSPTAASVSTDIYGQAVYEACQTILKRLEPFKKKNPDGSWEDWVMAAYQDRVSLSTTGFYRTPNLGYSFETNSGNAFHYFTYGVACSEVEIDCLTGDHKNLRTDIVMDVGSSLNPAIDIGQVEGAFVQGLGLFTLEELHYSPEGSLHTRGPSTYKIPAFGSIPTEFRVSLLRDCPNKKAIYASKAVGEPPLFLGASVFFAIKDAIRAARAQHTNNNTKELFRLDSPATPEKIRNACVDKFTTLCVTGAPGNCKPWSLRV
Assay [4] deals with T1, Xanthine dehydrogenase/oxidase. As to the kind of experiment: Inhibition of XO (unknown origin) using xanthine as substrate assessed as reduction in uric acid formation by double beam spectrophotometric analysis.
Assay [5] shares this target. As to the kind of experiment: Inhibition of XO (unknown origin) using xanthine as substrate preincubated for 3 hrs followed by substrate addition by UV-Vis spectrophotometric analysis.
Assay [6] shares this target. Put plainly: Inhibition of XO (unknown origin) by microtitre plate analysis.

T1 sequence (P47989 whole entry): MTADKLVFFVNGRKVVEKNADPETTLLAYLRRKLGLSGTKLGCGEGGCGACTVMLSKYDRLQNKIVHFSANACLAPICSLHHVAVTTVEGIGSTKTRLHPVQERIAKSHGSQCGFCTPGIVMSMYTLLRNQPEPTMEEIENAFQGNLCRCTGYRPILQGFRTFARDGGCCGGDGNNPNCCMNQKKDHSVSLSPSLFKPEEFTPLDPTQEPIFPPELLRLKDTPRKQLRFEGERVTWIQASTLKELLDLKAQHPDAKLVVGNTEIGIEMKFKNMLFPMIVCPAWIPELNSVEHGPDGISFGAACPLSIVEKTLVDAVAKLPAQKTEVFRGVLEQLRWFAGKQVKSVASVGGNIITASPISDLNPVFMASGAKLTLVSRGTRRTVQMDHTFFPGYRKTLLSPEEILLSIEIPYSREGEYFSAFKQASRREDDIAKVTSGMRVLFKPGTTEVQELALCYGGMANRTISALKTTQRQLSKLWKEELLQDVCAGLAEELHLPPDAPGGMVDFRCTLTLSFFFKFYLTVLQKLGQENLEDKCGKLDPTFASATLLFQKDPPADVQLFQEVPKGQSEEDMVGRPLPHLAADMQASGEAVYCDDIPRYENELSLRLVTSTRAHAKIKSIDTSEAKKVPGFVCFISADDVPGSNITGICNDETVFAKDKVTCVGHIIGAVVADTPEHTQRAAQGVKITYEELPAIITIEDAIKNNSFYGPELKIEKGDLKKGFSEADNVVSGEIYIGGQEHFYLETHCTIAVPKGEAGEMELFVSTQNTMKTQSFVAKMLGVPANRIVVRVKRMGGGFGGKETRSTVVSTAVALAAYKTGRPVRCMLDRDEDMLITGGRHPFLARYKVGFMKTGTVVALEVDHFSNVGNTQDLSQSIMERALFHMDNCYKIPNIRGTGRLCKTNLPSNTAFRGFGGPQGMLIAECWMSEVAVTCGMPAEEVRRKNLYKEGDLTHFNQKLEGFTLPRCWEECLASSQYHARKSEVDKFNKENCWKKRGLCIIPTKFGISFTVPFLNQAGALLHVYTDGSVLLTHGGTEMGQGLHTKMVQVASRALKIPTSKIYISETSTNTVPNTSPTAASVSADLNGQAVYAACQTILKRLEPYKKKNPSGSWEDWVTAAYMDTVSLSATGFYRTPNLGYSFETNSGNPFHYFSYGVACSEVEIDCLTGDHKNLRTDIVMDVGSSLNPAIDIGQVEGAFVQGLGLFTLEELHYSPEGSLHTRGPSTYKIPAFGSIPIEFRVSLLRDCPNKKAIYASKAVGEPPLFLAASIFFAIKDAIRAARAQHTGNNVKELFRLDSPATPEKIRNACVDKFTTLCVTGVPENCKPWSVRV

`O=c1c(-c2ccc(O)cc2)coc2cc(O)cc(O)c12` [GENISTEIN]: in assay [1], inhibition was half-maximal at 3530 nM (IC50).

Consider `COc1ccc([C@@H]2CC(=O)c3c(O)cc(O)cc3O2)cc1O` [HESPERETIN], for which, in assay [2], the IC50 came to 840 nM.

Turning to `O=c1oc2ccccc2c2c1C(c1cccs1)C=C(c1ccccc1)O2` (configuration not stated), the IC50 in assay [3] amounted to 2210 nM.

Consider `O=c1oc2c(O)ccc(-c3oc4cc(O)cc(O)c4c(=O)c3O)c2s1`, for which the 50% inhibitory concentration (IC50) in assay [4] turned out to be 50 nM.

For `O=c1cc(-c2ccccc2)oc2cc(O)cc(O)c12` [CHRYSIN], the IC50 in assay [5] was 1260 nM.

`COc1cc(O)cc2c(=O)oc(O)c(C)c12` had an IC50 in assay [6] of 2970 nM.

For the molecule `O=c1ccc2cc(O)c(O)cc2o1` [ESCULETIN], in assay [6], the half-maximal inhibitory concentration (IC50) was 42000 nM.

One may read the IC50 as the point on the concentration scale where inhibition reaches its midpoint.
